System: strain G009
Experiment: Lipase inhibition test: prevention of TAG degradation in cultivation of strain G009
Format: cell-based, Streptomyces albus
Conditions: G009, waste medium
Description: Also g/l values of TAGs were estimated by image analysis using Image J program. The standard curve was prepared using concentration scale from 1 g/l up to 40 g/l and the titre of lipids in the culture broth was measured against the standard curve. The whole culture broth (solid stage cultivations) or separated mycelia was extracted with an equal volume of chloroform-methanol (Clf-MeOH; 2:1). Tubes were incubated in a shaker at RT for 1 hour. After centrifugation sample was taken from the extract and analysed by TLC and/or by GC. Dry extract weight was determined by drying 1-5 ml of extract at RT for one day in air blow after which mass was determined by weighing. The mass was given as grams per 1 liter of the culture broth. The spores of the strain […] were cultivated in the medium containing the following raw materials in 1 L of tap water, pH 7: Dextrose 75 20 g, Bagasse 20 g, Biowaste from bakery and garden (1:1) 5 or 10 g, Algae 25 to 50 g, MgSO4.7 H2O 1 g, KH2PO4 1 g and CaCO3 3 g. The cultivation conditions were 28° C., 300 rpm for 11 days. After 6 days of cultivations, 0.05 g/l AgNO3 or 0.4% of TritonX100 solution containing 0.05 g/l of CaCO3. The flasks without the said supplements were considered as controls for lipase inhibition treatment study. Cultivation was continued in the same conditions for 5 days more. The samples were taken after 7, 8 and 11 days of cultivations according to the general sampling protocols used in this invention and the results of sampling are shown here. The parallel cultivations were done with two concentrations of both algae debris and biowaste and the upper row of each test condition gave a result with higher concentration of both waste fractions.

[1] = supplement added after 6 days, sample 11 day

SMILES: O=[N+]([O-])[O-].[Ag+] [AgNO3]
- Weight of Chloroform extract (g/l), 7 day (28° C., 300 rpm, supplement added after 6 days (0.05 g/l AgNO3 or 0.4% TritonX100 solution containing 0.05 g/l CaCO3), sample 7 day): 7.7 g/L
- Quantity of TAGs g/l by Image J, 7 day (supplement added after 6 days, sample 7 day): 4.8 g/L
- Quantity of TAGs g/l by Image J, 8 day (supplement added after 6 days, sample 8 day): 4.8 g/L
- Quantity of TAGs g/l by Image J, 11 day [1]: 4.8 g/L
- Weight of Chloroform extract (g/l), 11 day [1]: 8.5 g/L
